The subject of data set [1] is AML cell lines and various forms of lymphoma cell lines. Kind of data set: Cytotoxicity study (MTS), cell line panel. The class given is cell-based. Particulars: inhibition of proliferation; read-out: IC50 values, range over cell lines. On the procedure:
Cells were plated and treated with vehicle DMSO or COMPOUND I (10 concentrations) in 96-well plates for 5 days at 37° C. and 5% CO2. Cell viability was measured using CellTiter 96 AQueous one solution (MTS) cell proliferation assay (Promega, catalog #G3581), and IC50 values were calculated using GraphPad Prism 7 software.
(§1) Previous studies reported upregulation of KLF4 and CDKN1A expression as a potential mechanism of APT0-COMPOUND I activity in tumors. […] The upregulation of CDKN1A mRNA increased with duration of exposure in all AML cell lines tested (FIGS. 15D and 15E). At later time points, CDKN1A expression began to decrease, likely due to increasing cell death. Induction of CDKN1A expression is typically associated with a subsequent G0-G1, cell-cycle arrest, which was observed following COMPOUND I treatment of solid tumor lines.

The conditions of data set [2]: animals; cited from earlier work.
Data set [3] concerns γH2AX foci in CAOV3 cells. Kind of data set: Immunofluorescence staining of γH2AX foci. It counts as cell-based, human. Particulars: CAOV3, time course, FIG. 2C. The method, then:
Cells were harvested and washed with PBS twice, fixed in Z-fix solution (buffered zinc formalin fixatives, Anatech, Inc, Creek, Mich.) and permeabilized and blocked with 0.3% Triton X-100 in PBS containing 5% bovine serum albumin. The cells were then incubated with γ-H2AX antibody (1:250 dilution in 0.3% Triton X-100 in PBS containing 1% bovine serum albumin) overnight followed by three washes. Cells were incubated for 1 h with fluorescent-conjugated secondary antibodies (1:1000 dilution) followed by three washes. Slides were mounted with ProLong Gold antifade reagent with 4′,6-diamidino-2-phenylindole (DAPI) to stain cell nuclei (Molecular Probes). Fluorescence was viewed with Keyence Fluorescent Microscope using a 100× objective and quantitated with Image J software (the National Institutes of Health).
The structure of COMPOUND I is similar to drugs that bind to quadruplex structures in DNA which results in strand breaks; this led to the investigation of whether COMPOUND I caused damage to DNA. The parental Raji cells were treated with 0.5 μM COMPOUND I for increasing periods of time and induction of DNA damage was assessed by accumulation of the phosphorylated forms of ATM and γH2AX measured by Western blot analysis. […]

Data set [4] relates to BIK, BAD, MCL-1 in Raji cells. The experiment in a line: Western blot of proteins involved in apoptosis. The class given is cell-based, human. Particulars: 0.5 μM, 24 h, n=3.
Data set [5] relates to MCF10A BRCA1-het #1 and #2 clones vs control. The experiment in a line: Sensitivity of BRCA1-proficient and -deficient isogenic clones. Particulars: FIG. 3A. It counts as cell-based, human. On the procedure:
(§2) Cells were plated and treated with the indicated drugs in 96-well plates for 5 days. Cell viability was measured using CellTiter 96 AQueous one solution (MTS) cell proliferation assay purchased from Promega, and IC50 values were calculated using GraphPad Prism 6 Software.
(§3) The finding that COMPOUND I produced DNA damage led to the investigation of whether cells deficient in homologous recombination were hypersensitive to this drug. The hypothesis that there would be synthetic lethality between COMPOUND I and BRCA1 deficiency using isogenic pairs of BRCA1-proficient and -deficient human cell lines was tested. […] The conclusion that BRCA1-deficient cells are hypersensitive to COMPOUND I was further supported by the results obtained in MCF7 E7 cells in which BRCA1 expression is stably knocked down by the expression of an shRNAi. […] Whether BRCA2-deficient cells are more sensitive to COMPOUND I was tested using the BRCA2-proficient and BRCA2-deficient ovarian cancer cell lines, PEO4 and PEO1, respectively. PEO1 is BRCA2-deficient and sensitive to cisplatin and a poly(ADP-ribose) polymerase inhibitor AG14361. PEO4 was derived from ascites at the time of relapse with cisplatin resistance and contains a secondary mutation that restores BRCA2 function. […] Thus, loss of either BRCA1 or BRCA2 function renders malignant cells hypersensitive to COMPOUND I.

Data set [6] relates to hTERT-IMEC BRCA1 knock-in clone. The data set is described as above. Particulars: FIG. 3B. The class given is cell-based, human. On the procedure: as §2, §3
Data set [7] deals with G4 sequences (telomere, MYC, KIT, rRNA oligos). Kind of data set: Modified FRET assay, melting of G-quadruplex oligos. It counts as binding, human. Particulars: FIG. 13C; COMPOUND I data at 6-hour incubation. The method, then: FRET assay and data analysis was performed as described previously and modified by using dual labeled (5′ FAM-3′ BHQ1) single-stranded oligos. Melting temperature of each oligo was assessed in the presence of vehicle DMSO or escalating concentrations of COMPOUND I, Fe(COMPOUND I)3, CX-5461, or TMPyP4 using a Roche LightCycler 96 [at 37° C. for 300 seconds followed by temperature increased in […] intervals up to 91° C. (25 steps) with 300-second total incubation time at each temperature]. Drug and oligo reaction mixes were analyzed immediately or incubated for 6 hours at room temperature and then analyzed. […] COMPOUND I data are presented for 6-hour time point.
The ability of COMPOUND I (parental monomeric form of the drug) and Fe(COMPOUND I)3 to bind and stabilize G4 sequences using a modified FRET assay was evaluated (FIGS. 21 and 22). TMPyP4, a well-known G4 ligand, and CX-5461, a clinical stage molecule recently reported to have G4-binding properties, were utilized as controls to assess the specificity of COMPOUND I and Fe(COMPOUND I)3 for G4-stabilizing activity.

The subject of the next data set is MV4-11 cells. The experiment in a line: Flow cytometry cell-cycle analysis. The class given is cell-based. Particulars: 1 μmol/L, 24-hour exposure. On the procedure: Cells were treated as described above. To determine apoptosis, cells were stained with FITC-Annexin V and propidium iodide (PI; BD Pharmingen, catalog #556570) and then analyzed on BD Accuri C6 flow cytometer. To measure DNA synthesis and phases of cell cycle, treated cells were stained with 5-ethynyl-2′-deoxyuridine (Edu) Alexa Fluor 488 (Thermo Fisher Scientific, catalog #C10425) and PI (PI/RNase A staining solution, BD Biosciences, catalog #550825). The dead cells were excluded from analysis by using Live/Dead Fixable Far Red Dead Cell Stain Kit (Thermo Fisher Scientific, catalog #L34973). Staining was performed as per the manufacturers' instructions.
as §1

SMILES strings stand for the structures.

Consider `Cc1[nH]c2ccc(F)cc2c1-c1nc2c3cccnc3c3ncccc3c2[nH]1` [COMPOUND I, 2-(5-fluoro-2-methyl-1H-indol-3-yl)-1H-imidazo[4,5-f][1,10]phenanthroline], for which, in data set [1], the half-maximal inhibitory concentration (IC50) (as a rule, the point on the concentration scale where inhibition reaches its midpoint) was 57 to 1750 nM. In addition, in data set [2], the myelosuppression result was “did not produce myelosuppression”. Also, the “number of γH2AX foci” value in data set [3] is listed as “increase in the number of foci was detectable at 1 h”. For the same compound, in data set [4], the “BAD increase vs DMSO control” value was 2.1±0.25 fold, the “BIK increase vs DMSO control” value is 47.5±16.8% and the “MCL-1 decrease vs DMSO control” value was 38.1±2.3%. Also, the “sensitivity of BRCA1-het knockin clones vs control” value in data set [5] is “even more hypersensitive”. Moreover, in data set [6], the “sensitivity of BRCA1 2-bp knock-in clone” value was “hypersensitive to both olaparib and COMPOUND I”. Moreover, in data set [7], the “stabilization of G4 sequences (ΔT1/2)” value was “time-dependent stabilization of G4 motifs, but it demonstrated the greatest propensity for stabilizing the MYC G4 sequences”. In the data set on MV4-11 cells, the G0-G1 cell-cycle arrest entry is “all live cells had arrested in G0-G1”.

These data come from US11149047B2, “Aryl imidazoles for treatment of cancer” (Aptose Biosciences Inc., priority 2017, dated 2021).
